Patent US20060276527A1, “Combination therapies for the treatment of cancer” (Thresold Pharmaceuticals, Inc., priority 2003, published 2006)
Where two headings read alike, the source gives them in different places.

Legend:
metastatic breast cancer = conditions: addition of LND to epirubicin, factorial design; cited from earlier work
[1] = system: actin, caspase 3, NF-kappabeta, Ikappabetaalpha; conditions: except at 800 microM concentration
Protocol: Methods: Cells were plated at a density of 5×10^5 cells into a dish, and then maintained in 37° C. incubator (5% CO2) for 2 days. Prior to the assay, cells were rinsed twice with pre-warmed (37° C.) RPMI-1640 Medium (ATCC No. 30-2001; 10 mM HEPES; 1 mM sodium pyruvate; 2 mM L-glutamine; 4500 mg glucose/L; 1500 mg sodium bicarbonate/L). Cells were incubated with 2 mL culture medium in the absence or presence of lonidamine at different concentrations for 4 hours at 37° C. either under normoxia or hypoxia (oxygen level<0.1%). At the end of the incubation, the dish was placed on ice, and the cells were washed rapidly twice with cold PBS buffer (4° C.). For nuclear extracts, cells were lysed with buffer A (10 mM Tris, pH7.5; 1.5 mM MgCl2; 10 mM KCl and protease inhibitors and buffer C (0.5 M NaCl; 20 mM Tris pH7.5; 1.5 mM MgCl2; 20% glycerol and protease inhibitors), sequentially. The protease inhibitors used in the experiments were a cocktail of five protease inhibitors (500 mM AEBSF-HCl, 1 mg/ml Aprotinin, 1 mM E-64, 500 mM EDTA and 1 mM Leupeptin; Calbiochem NO 539131). For whole cell lysate, cells were lysed with 150 mM NaCl; 10 mM Tris ph7.5; 10 mM EDTA; 1% Triton X-100; 0.5% Deoxycholate, and protease inhibitors. The protein concentration was measured using a Bio-Rad protein assay. Equal amounts of protein were loaded on a SDS-PAGE gel. […]

HIF-1alpha [2] = conditions: PC3 cells, normoxic and hypoxic conditions, 4 hours; inhibition dose-dependent
Protocol: Methods: Cells were plated at a density of 5×10^5 cells into a dish, and then maintained in 37° C. incubator (5% CO2) for 2 days. Prior to the assay, cells were rinsed twice with pre-warmed (37° C.) RPMI-1640 Medium (ATCC No. 30-2001; 10 mM HEPES; 1 mM sodium pyruvate; 2 mM L-glutamine; 4500 mg glucose/L; 1500 mg sodium bicarbonate/L). […] At the end of the incubation, the dish was placed on ice, and the cells were washed rapidly twice with cold PBS buffer (4° C.). For nuclear extracts, cells were lysed with buffer A (10 mM Tris, pH7.5; 1.5 mM MgCl2; 10 mM KCl and protease inhibitors and buffer C (0.5 M NaCl; 20 mM Tris pH7.5; 1.5 mM MgCl2; 20% glycerol and protease inhibitors), sequentially. The protease inhibitors used in the experiments were a cocktail of five protease inhibitors (500 mM AEBSF-HCl, 1 mg/ml Aprotinin, 1 mM E-64, 500 mM EDTA and 1 mM Leupeptin; Calbiochem NO 539131). For whole cell lysate, cells were lysed with 150 mM NaCl; 10 mM Tris ph7.5; 10 mM EDTA; 1% Triton X-100; 0.5% Deoxycholate, and protease inhibitors. The protein concentration was measured using a Bio-Rad protein assay. Equal amounts of protein were loaded on a SDS-PAGE gel. […] The specific protein was detected using a colorimetric substrate, and the intensity of each protein was quantified using an NIH image system.

HIF-1alpha [3] = system: HIF-1alpha
Protocol: LNCaP is a citrate-producing cell (ATTC No. CRL-1740) while PC3 is citrate oxidizing cell (ATTC No. CRL-1435).
Methods: Cells were plated at a density of 5×10^5 cells into a dish, and then maintained in 37° C. incubator (5% CO2) for 2 days. Prior to the assay, cells were rinsed twice with pre-warmed (37° C.) RPMI-1640 Medium (ATCC No. 30-2001; 10 mM HEPES; 1 mM sodium pyruvate; 2 mM L-glutamine; 4500 mg glucose/L; 1500 mg sodium bicarbonate/L). Cells were incubated with 2 mL culture medium in the absence or presence of lonidamine at different concentrations for 4 hours at 37° C. either under normoxia or hypoxia (oxygen level<0.1%). […] For nuclear extracts, cells were lysed with buffer A (10 mM Tris, pH7.5; 1.5 mM MgCl2; 10 mM KCl and protease inhibitors and buffer C (0.5 M NaCl; 20 mM Tris pH7.5; 1.5 mM MgCl2; 20% glycerol and protease inhibitors), sequentially. The protease inhibitors used in the experiments were a cocktail of five protease inhibitors (500 mM AEBSF-HCl, 1 mg/ml Aprotinin, 1 mM E-64, 500 mM EDTA and 1 mM Leupeptin; Calbiochem NO 539131). For whole cell lysate, cells were lysed with 150 mM NaCl; 10 mM Tris ph7.5; 10 mM EDTA; 1% Triton X-100; 0.5% Deoxycholate, and protease inhibitors. The protein concentration was measured using a Bio-Rad protein assay. […]

advanced breast cancer = conditions: daily divided oral dose of 600 mg, cited from earlier work

Structure (SMILES): O=C(O)c1nn(Cc2ccc(Cl)cc2Cl)c2ccccc12 [lonidamine, 1-(2,4-dichlorobenzyl)-1H-indazole-3-carboxylic acid]
- time to progression in metastatic breast cancer patients treated with epirubicin (metastatic breast cancer): not improved
- inhibition of protein levels of actin, caspase 3, NF-kappabeta, or Ikappabetaalpha [1]: no detectable inhibition
- level of HIF-1alpha protein detected in nuclear (NE) and whole-cell extract (WCE) preparations (HIF-1alpha [2]): reduced the level of HIF-1alpha protein
- sensitivity of citrate-producing cells (LNCaP) to lonidamine treatment compared to citrate-oxidizing cells (PC3) (HIF-1alpha [3]; HIF-1alpha accumulation, LNCaP versus PC3): greater sensitivity
- level of HIF-1alpha protein detected in nuclear (NE) and whole-cell extract (WCE) preparations (HIF-1alpha [3]; LNCaP cells, hypoxic conditions (oxygen <0.1%), 4 hours, inhibition dose-dependent): reduced the level of HIF-1alpha protein
- minor response (advanced breast cancer; 28 patients evaluable): 11%
- partial response (4-24+ months) (advanced breast cancer; 28 patients evaluable): 11%
- progressed (advanced breast cancer; of 28 patients evaluable): 20 patients
- stable disease (greater than 3 months) (advanced breast cancer; of 28 patients evaluable): two
